Laboratory results: PubChem BioAssay (NCI)
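Method: 48-hour compound exposure of cells in 96-well plates, five concentrations, linear interpolation of endpoints. The concentration for 50% growth inhibition is given as GI50. TGI: concentration producing complete growth inhibition.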

What was measured:
Assay in all cases: NCI anticancer screen, dose series, 48 h
786-0 renal = tested on: 786-0 renal
A498 renal = tested on: A498 renal
A549 NSCLC = tested on: A549 NSCLC
ACHN renal = tested on: ACHN renal
BT-549 breast = tested on: BT-549 breast
CAKI-1 renal = tested on: CAKI-1 renal
CCRF-CEM leukemia = tested on: CCRF-CEM leukemia
COLO 205 colon = tested on: COLO 205 colon
DU-145 prostate = tested on: DU-145 prostate
EKVX NSCLC = tested on: EKVX NSCLC
HCC-2998 colon = tested on: HCC-2998 colon
HCT-116 colon = tested on: HCT-116 colon
HCT-15 colon = tested on: HCT-15 colon
HL-60(TB) leukemia = tested on: HL-60(TB) leukemia
HOP-62 NSCLC = tested on: HOP-62 NSCLC
HOP-92 NSCLC = tested on: HOP-92 NSCLC
HS 578T breast = tested on: HS 578T breast
IGROV1 ovarian = tested on: IGROV1 ovarian
KM12 colon = tested on: KM12 colon
LOX IMVI melanoma = tested on: LOX IMVI melanoma
M14 melanoma = tested on: M14 melanoma
MALME-3M melanoma = tested on: MALME-3M melanoma
MDA-MB-231 breast = tested on: MDA-MB-231 breast
MDA-MB-435 = tested on: MDA-MB-435
MOLT-4 leukemia = tested on: MOLT-4 leukemia
NCI-H226 lung = tested on: NCI-H226 lung
NCI-H23 lung = tested on: NCI-H23 lung
NCI-H460 lung = tested on: NCI-H460 lung
NCI-H522 lung = tested on: NCI-H522 lung
NCI/ADR-RES ovarian = tested on: NCI/ADR-RES ovarian
OVCAR-3 ovarian = tested on: OVCAR-3 ovarian
OVCAR-4 ovarian = tested on: OVCAR-4 ovarian
OVCAR-5 ovarian = tested on: OVCAR-5 ovarian
OVCAR-8 ovarian = tested on: OVCAR-8 ovarian
PC-3 prostate = tested on: PC-3 prostate
RPMI-8226 leukemia = tested on: RPMI-8226 leukemia
RXF 393 renal = tested on: RXF 393 renal
SF-268 CNS = tested on: SF-268 CNS
SF-295 CNS = tested on: SF-295 CNS
SF-539 CNS = tested on: SF-539 CNS
SK-MEL-2 melanoma = tested on: SK-MEL-2 melanoma
SK-MEL-28 melanoma = tested on: SK-MEL-28 melanoma
SK-MEL-5 melanoma = tested on: SK-MEL-5 melanoma
SK-OV-3 ovarian = tested on: SK-OV-3 ovarian
SN12C renal = tested on: SN12C renal
SNB-19 CNS = tested on: SNB-19 CNS
SNB-75 CNS = tested on: SNB-75 CNS
SW-620 colon = tested on: SW-620 colon
T-47D breast = tested on: T-47D breast
TK-10 renal = tested on: TK-10 renal
U251 CNS = tested on: U251 CNS
UACC-257 melanoma = tested on: UACC-257 melanoma
UACC-62 melanoma = tested on: UACC-62 melanoma
UO-31 renal = tested on: UO-31 renal

Structure (SMILES): O=C(/C(=C\c1ccc([N+](=O)[O-])cc1)S(=O)Cc1ccc(F)cc1)c1ccc(F)cc1 (stereo not drawn)
- GI50 (786-0 renal): 1.74 µM
- TGI (786-0 renal): 3.92 µM
- GI50 (A498 renal): 6.19 µM
- TGI (A498 renal): 18.6 µM
- GI50 (A549 NSCLC): 2.83 µM
- TGI (A549 NSCLC): 10.2 µM
- GI50 (ACHN renal): 2.33 µM
- TGI (ACHN renal): 6.51 µM
- GI50 (BT-549 breast): 1.96 µM
- TGI (BT-549 breast): 3.88 µM
- GI50 (CAKI-1 renal): 2.07 µM
- TGI (CAKI-1 renal): 5.54 µM
- GI50 (CCRF-CEM leukemia): 1.48 µM
- TGI (CCRF-CEM leukemia): 6.75 µM
- GI50 (COLO 205 colon): 1.91 µM
- TGI (COLO 205 colon): 3.63 µM
- GI50 (DU-145 prostate): 1.66 µM
- TGI (DU-145 prostate): 3.06 µM
- GI50 (EKVX NSCLC): 1.91 µM
- TGI (EKVX NSCLC): 4.54 µM
- GI50 (HCC-2998 colon): 1.69 µM
- TGI (HCC-2998 colon): 3.22 µM
- GI50 (HCT-116 colon): 1.64 µM
- TGI (HCT-116 colon): 3.07 µM
- GI50 (HCT-15 colon): 1.64 µM
- TGI (HCT-15 colon): 4.43 µM
- GI50 (HL-60(TB) leukemia): 2.09 µM
- TGI (HL-60(TB) leukemia): 5.38 µM
- GI50 (HOP-62 NSCLC): 2.74 µM
- TGI (HOP-62 NSCLC): 8.28 µM
- GI50 (HOP-92 NSCLC): 1.86 µM
- TGI (HOP-92 NSCLC): 3.98 µM
- GI50 (HS 578T breast): 3.3 µM
- TGI (HS 578T breast): 75 µM
- GI50 (IGROV1 ovarian): 1.69 µM
- TGI (IGROV1 ovarian): 3.49 µM
- GI50 (KM12 colon): 2.22 µM
- TGI (KM12 colon): 5.46 µM
- GI50 (LOX IMVI melanoma): 1.54 µM
- TGI (LOX IMVI melanoma): 3.05 µM
- GI50 (M14 melanoma): 1.79 µM
- TGI (M14 melanoma): 3.76 µM
- GI50 (MALME-3M melanoma): 1.64 µM
- TGI (MALME-3M melanoma): 3.55 µM
- GI50 (MDA-MB-231 breast): 1.99 µM
- TGI (MDA-MB-231 breast): 4.35 µM
- GI50 (MDA-MB-435): 1.84 µM
- TGI (MDA-MB-435): 4.09 µM
- GI50 (MOLT-4 leukemia): 1.51 µM
- TGI (MOLT-4 leukemia): 5.06 µM
- GI50 (NCI-H226 lung): 4.32 µM
- TGI (NCI-H226 lung): 21.9 µM
- GI50 (NCI-H23 lung): 1.91 µM
- TGI (NCI-H23 lung): 4.1 µM
- GI50 (NCI-H460 lung): 2.13 µM
- TGI (NCI-H460 lung): 4.7 µM
- GI50 (NCI-H522 lung): 1.77 µM
- TGI (NCI-H522 lung): 3.31 µM
- GI50 (NCI/ADR-RES ovarian): 2.43 µM
- TGI (NCI/ADR-RES ovarian): 6.98 µM
- GI50 (OVCAR-3 ovarian): 1.63 µM
- TGI (OVCAR-3 ovarian): 3.01 µM
- GI50 (OVCAR-4 ovarian): 1.84 µM
- TGI (OVCAR-4 ovarian): 3.91 µM
- GI50 (OVCAR-5 ovarian): 1.83 µM
- TGI (OVCAR-5 ovarian): 3.67 µM
- GI50 (OVCAR-8 ovarian): 2.17 µM
- TGI (OVCAR-8 ovarian): 5.34 µM
- GI50 (PC-3 prostate): 1.69 µM
- TGI (PC-3 prostate): 3.47 µM
- GI50 (RPMI-8226 leukemia): 1.3 µM
- TGI (RPMI-8226 leukemia): 4.28 µM
- GI50 (RXF 393 renal): 1.78 µM
- TGI (RXF 393 renal): 3.38 µM
- GI50 (SF-268 CNS): 2.11 µM
- TGI (SF-268 CNS): 5.34 µM
- GI50 (SF-295 CNS): 1.68 µM
- TGI (SF-295 CNS): 3.72 µM
- GI50 (SF-539 CNS): 1.69 µM
- TGI (SF-539 CNS): 3.37 µM
- GI50 (SK-MEL-2 melanoma): 2.2 µM
- TGI (SK-MEL-2 melanoma): 5.47 µM
- GI50 (SK-MEL-28 melanoma): 1.8 µM
- TGI (SK-MEL-28 melanoma): 3.66 µM
- GI50 (SK-MEL-5 melanoma): 1.8 µM
- TGI (SK-MEL-5 melanoma): 3.5 µM
- GI50 (SK-OV-3 ovarian): 11.8 µM
- TGI (SK-OV-3 ovarian): 24.2 µM
- GI50 (SN12C renal): 1.9 µM
- TGI (SN12C renal): 3.99 µM
- GI50 (SNB-19 CNS): 2.37 µM
- TGI (SNB-19 CNS): 5.61 µM
- GI50 (SNB-75 CNS): 3.28 µM
- TGI (SNB-75 CNS): 15.3 µM
- GI50 (SW-620 colon): 1.58 µM
- TGI (SW-620 colon): 3.13 µM
- GI50 (T-47D breast): 2.08 µM
- TGI (T-47D breast): 6.57 µM
- GI50 (TK-10 renal): 2.31 µM
- TGI (TK-10 renal): 7 µM
- GI50 (U251 CNS): 1.72 µM
- TGI (U251 CNS): 3.44 µM
- GI50 (UACC-257 melanoma): 1.79 µM
- TGI (UACC-257 melanoma): 3.73 µM
- GI50 (UACC-62 melanoma): 1.71 µM
- TGI (UACC-62 melanoma): 3.25 µM
- GI50 (UO-31 renal): 1.52 µM
- TGI (UO-31 renal): 3.23 µM
